Literature values as cited in PubChem BioAssay AID1259409 (Chemical Carcinogenesis Research Information System (CCRIS), 2018).

System: rodent chemically induced tumor inhibition, incidence and multiplicity
Assay: CCRIS tumor inhibitor studies
Details: Route [Inhibitor]: ORAL, Promoter: NONE USED

## CC1=C(/C=C/C(C)=C/C=C/C(C)=C/C(=O)Nc2ccc(O)cc2)C(C)(C)CCC1
Carcinogen: N-NITROSOBIS(2-OXYPROPYL)AMINE, 60599-38-4, Dose [Inhibitor]: 0.05, 0.1 OR 0.2 MILLIMOLAR/KG DIET FOR 32 WK STARTING 1 WK AFTER THE CARCINOGEN DOSE (STUDY DURATION: 33 WK), Species: HAMSTER, Strain/Sex: SYRIAN/MALE, Target Tissue: Type of Lesion: LUNG: ADENOMA, Dose [Carcinogen]: 40 MG/KG ONCE
  tumour outcome (control, treated, inhibition, significance): 1/12 (8%), 2/21 (10%), -25%, not significant
Carcinogen: N-NITROSOBIS(2-OXYPROPYL)AMINE, 60599-38-4, Dose [Inhibitor]: 0.05, 0.1 OR 0.2 MILLIMOLAR/KG DIET FOR 32 WK STARTING 1 WK AFTER THE CARCINOGEN DOSE (STUDY DURATION: 33 WK), Species: HAMSTER, Strain/Sex: SYRIAN/MALE, Target Tissue: Type of Lesion: PANCREAS: ADENOMA, Dose [Carcinogen]: 40 MG/KG ONCE
  tumour outcome (control, treated, inhibition, significance): 12/12 (100%), 21/21 (100%), 0%, not significant
Carcinogen: N-NITROSOBIS(2-OXYPROPYL)AMINE, 60599-38-4, Dose [Inhibitor]: 0.05, 0.1 OR 0.2 MILLIMOLAR/KG DIET FOR 32 WK STARTING 1 WK AFTER THE CARCINOGEN DOSE (STUDY DURATION: 33 WK), Species: HAMSTER, Strain/Sex: SYRIAN/MALE, Target Tissue: Type of Lesion: PANCREAS: CARCINOMA, Dose [Carcinogen]: 40 MG/KG ONCE
  tumour outcome (control, treated, inhibition, significance): 6/12 (50%), 13/21 (62%), -24%, not significant
Carcinogen: NONE USED, Dose [Inhibitor]: 1 MILLIMOLAR IN DIET DAILY FOR 39 WK STARTING AT 2 MO OF AGE THROUGH THE END OF THE STUDY (STUDY DURATION: 39 WK), Species: MOUSE, Strain/Sex: C3H/FEMALE, Target Tissue: Type of Lesion: MAMMARY GLAND: ADENOCARCINOMA
  tumour outcome (control, treated, inhibition, significance): 83/98 (85%), 71/100 (71%), 16%, not significant
Carcinogen: NONE USED, Dose [Inhibitor]: 1 MILLIMOLAR IN DIET FOR 14 WK STARTING AT 4-6 MO OF AGE THROUGH THE END OF THE STUDY (STUDY DURATION: 14 WK), Species: MOUSE, Strain/Sex: C3H/FEMALE, Target Tissue: Type of Lesion: MAMMARY GLAND: ADENOCARCINOMA
  tumour outcome (control, treated, inhibition, significance): 54/78 (69%), 62/78 (80%), -16%, not significant
Carcinogen: NONE USED, Dose [Inhibitor]: 1 MILLIMOLAR IN DIET FOR 39 WK STARTING AT 2 MO OF AGE THROUGH THE END OF THE STUDY (STUDY DURATION: 39 WK), Species: MOUSE, Strain/Sex: C3H/FEMALE, Target Tissue: Type of Lesion: MAMMARY GLAND: ADENOCARCINOMA
  tumour outcome (control, treated, inhibition, significance): 83/98 (85%), 71/100 (71%), 16%, not significant
Carcinogen: NONE USED, Dose [Inhibitor]: 1.0 MM/KG IN DIET DAILY FOR 14 WK STARTING AT 4-6 MO OF AGE THROUGH THE END OF THE STUDY (STUDY DURATION: 14 WK), Species: MOUSE, Strain/Sex: C3H/FEMALE, Target Tissue: Type of Lesion: MAMMARY GLAND: ADENOCARCINOMA
  tumour outcome (control, treated, inhibition, significance): 54/78 (69%), 62/78 (80%), -16%, not significant
Carcinogen: NONE USED, Dose [Inhibitor]: 783 MG/KG DIET DAILY FOR 54 WK (STUDY DURATION: 54 WK), Species: RAT, Strain/Sex: ACI/MALE, Target Tissue: Type of Lesion: ADRENAL GLAND: TUMOR
  tumour outcome (control, treated, inhibition, significance): 15/43 (35%), 18/43 (42%), -20%, not significant
Carcinogen: NONE USED, Dose [Inhibitor]: 783 MG/KG DIET DAILY FOR 54 WK (STUDY DURATION: 54 WK), Species: RAT, Strain/Sex: ACI/MALE, Target Tissue: Type of Lesion: PANCREAS: ADENOMA
  tumour outcome (control, treated, inhibition, significance): 1/40 (3%), 5/44 (11%), -267%, not significant
Carcinogen: NONE USED, Dose [Inhibitor]: 783 MG/KG DIET DAILY FOR 54 WK (STUDY DURATION: 54 WK), Species: RAT, Strain/Sex: ACI/MALE, Target Tissue: Type of Lesion: PITUITARY GLAND: ADENOMA OR CARCINOMA
  tumour outcome (control, treated, inhibition, significance): 20/39 (51%), 19/42 (45%), 12%, not significant
Carcinogen: NONE USED, Dose [Inhibitor]: 783 MG/KG DIET DAILY FOR 54 WK (STUDY DURATION: 54 WK), Species: RAT, Strain/Sex: ACI/MALE, Target Tissue: Type of Lesion: PROSTATE GLAND: ADENOMA OR CARCINOMA
  tumour outcome (control, treated, inhibition, significance): 19/44 (43%), 11/40 (28%), 35%, not significant
Carcinogen: NONE USED, Dose [Inhibitor]: 783 MG/KG DIET DAILY FOR 54 WK (STUDY DURATION: 54 WK), Species: RAT, Strain/Sex: ACI/MALE, Target Tissue: Type of Lesion: SKIN: TUMORS
  tumour outcome (control, treated, inhibition, significance): 12/45 (27%), 3/45 (7%), 74%, p<0.025
Carcinogen: NONE USED, Dose [Inhibitor]: 783 MG/KG DIET DAILY FOR 54 WK (STUDY DURATION: 54 WK), Species: RAT, Strain/Sex: ACI/MALE, Target Tissue: Type of Lesion: TESTES: INTERSTITIAL CELL TUMOR
  tumour outcome (control, treated, inhibition, significance): 21/45 (47%), 24/44 (55%), -17%, not significant
